According to patent EP0109255A2, “Glycerol derivatives” (ONO PHARMACEUTICAL CO., LTD., priority 1982, dated 1984):

Tested on: mice
Experiment: Acute toxicity by intravenous administration (tail vein)
Assay type: in vivo
Description: On the other hand, it was confirmed that the acute toxicity of all extent of the compounds of the present invention was more. than 30 mg/kg by intravenous administration. Therefore, glycerol derivatives of the present invention may be considered to be sufficiently safe and suitable for medical use. For example, the mortality (dead/used) in glycerol derivatives of the present invention, i.e. compounds prepared in Example 8, 8(j) and 8(r) was 2/10, 0/10 and 0/10, respectively, when each glycerol compound was intravenously administered to tail vein in ten mice at the dose of 30 mg/kg.

Row | SMILES | mortality (dead/used) (intravenously administered to tail vein in ten mice at the dose of 30 mg/kg) | mortality (dead/used) (mouse, in vivo, iv, 30 mg/kg)
1 | CCCCCCCCCCCCCCCCOCC(COCCCC[N+](C)(C)C)NC(=O)OCCCC (racemic) [8 (j), (2RS)-l-0-hexadecyl-2-dehydroxy-2-butoxycarbonylamino-3-0-[4-(N,N,N-trimethylammonio)butyl]glycerol iodide] | 0/10 | –
2 | CCCCCCCCCCCCCCCCOCC(COCCCC[N+](C)(C)C)NC(=O)NCCC (stereo not drawn) [8 (r)] | – | 0/10
3 | CCCCCCCCCCCCCCCCOCC(COCCCC[N+](C)(C)C)NC(=O)c1ccccc1 (stereo not drawn) [Example 8] | – | 2/10
